Results from PubChem BioAssay AID248 (DTP/NCI, 2004).
Toxic doses and inconclusive results are not listed. No stated cut-off is given here; in the data, active means T/C of 150% or more; inactive means T/C below 125%. Peptide text beside a SMILES is read from it. * marks the point of attachment. Cbz = O=C(OCc1ccccc1)*

Tested on: L1210 leukemia ip in BDF1 mice, survival T/C
Assay: NCI In Vivo Anticancer Drug Screen. Data for tumor model L1210 Leukemia (intraperitoneal) in B6D2F1 (BDF1) mice
Conditions: endpoint: mean survival time, higher = longer survival
In short: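 In this screen, tumor-bearing mice given compound are compared to those given vehicle, and their survival values are reported as a treated-to-control quotient.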

[1] = dose: 100.0 mg/kg/injection, schedule: Q01DX009 (ip), vehicle: Klucel (hydroxypropylcellulose) (HPC)
[2] = dose: 200.0 mg/kg/injection, schedule: Q01DX009 (ip), vehicle: Klucel (hydroxypropylcellulose) (HPC)
[3] = dose: 400.0 mg/kg/injection, schedule: Q01DX009 (ip), vehicle: Klucel (hydroxypropylcellulose) (HPC)
[4] = dose: 100.0 mg/kg/injection, schedule: Q01DX009 (ip), vehicle: saline with Tween-80
[5] = dose: 200.0 mg/kg/injection, schedule: Q01DX009 (ip), vehicle: saline with Tween-80
[6] = dose: 75.0 mg/kg/injection, schedule: Q01DX001 (ip), vehicle: saline
[7] = dose: 150.0 mg/kg/injection, schedule: Q01DX001 (ip), vehicle: saline
[8] = dose: 100.0 mg/kg/injection, schedule: Q04DX003 (ip), vehicle: saline
[9] = dose: 200.0 mg/kg/injection, schedule: Q04DX003 (ip), vehicle: saline
[10] = dose: 400.0 mg/kg/injection, schedule: Q04DX003 (ip), vehicle: saline
[11] = dose: 100.0 mg/kg/injection, schedule: Q01DX001 (ip), vehicle: saline
[12] = dose: 200.0 mg/kg/injection, schedule: Q01DX001 (ip), vehicle: saline
[13] = dose: 400.0 mg/kg/injection, schedule: Q01DX001 (ip), vehicle: saline
[14] = dose: 400.0 mg/kg/injection, schedule: Q01DX009 (ip), vehicle: saline with Tween-80

Measured: T/C

CCCCOC(=O)Nc1cc(Cl)ccc1C
inactive: dose: 100.0 mg/kg/injection, schedule: Q01DX001 (ip), vehicle: gum acacia 95 % of control | dose: 200.0 mg/kg/injection, schedule: Q01DX001 (ip), vehicle: gum acacia 96 % of control | dose: 400.0 mg/kg/injection, schedule: Q01DX001 (ip), vehicle: gum acacia 98 % of control

O=[N+]([O-])C=C1CCCCC1
inactive: dose: 100.0 mg/kg/injection, schedule: Q01DX001 (ip), vehicle: saline with Tween-80 101 % of control | dose: 200.0 mg/kg/injection, schedule: Q01DX001 (ip), vehicle: saline with Tween-80 109 % of control

C[CH2][Sn]([CH2]C)([CH2]C)[S]Cc1ccccc1
inactive: dose: 1.56 mg/kg/injection, schedule: Q01DX009 (ip), vehicle: saline with Tween-80 97 % of control | dose: 3.13 mg/kg/injection, schedule: Q01DX009 (ip), vehicle: saline with Tween-80 95 % of control | dose: 6.25 mg/kg/injection, schedule: Q01DX009 (ip), vehicle: saline with Tween-80 87 % of control

NS(=O)(=O)CCCCCCN1C(=O)c2ccccc2C1=O
inactive: dose: 100.0 mg/kg/injection, schedule: Q04DX003 (ip), vehicle: saline with Tween-80 91 % of control | dose: 200.0 mg/kg/injection, schedule: Q04DX003 (ip), vehicle: saline with Tween-80 93 % of control | dose: 400.0 mg/kg/injection, schedule: Q04DX003 (ip), vehicle: saline with Tween-80 93 % of control

O=[N+]([O-])c1cc(C(F)(F)F)cc([N+](=O)[O-])c1Cl
inactive: dose: 12.5 mg/kg/injection, schedule: Q01DX001 (ip), vehicle: Klucel (hydroxypropylcellulose) (HPC) 91 % of control | dose: 25.0 mg/kg/injection, schedule: Q01DX001 (ip), vehicle: Klucel (hydroxypropylcellulose) (HPC) 91 % of control

O=C(Nc1ccc(Cl)c(Cl)c1)OCCN1CCOCC1
inactive: [1] 92 % of control | [2] 94 % of control | [3] 92 % of control

O=c1[nH]c2cc(Cl)ccc2c2c(Cl)cccc12
inactive: dose: 75.0 mg/kg/injection, schedule: Q01DX001 (ip), vehicle: carboxymethylcellulose (CMC) 91 % of control | dose: 150.0 mg/kg/injection, schedule: Q01DX001 (ip), vehicle: carboxymethylcellulose (CMC) 91 % of control | dose: 300.0 mg/kg/injection, schedule: Q01DX001 (ip), vehicle: carboxymethylcellulose (CMC) 96 % of control

Cc1ccc2c(c1)P(O)(=S)c1cc(Cl)ccc1O2 (configuration not stated)
inactive: dose: 25.0 mg/kg/injection, schedule: Q01DX009 (ip), vehicle: saline 102 % of control | dose: 50.0 mg/kg/injection, schedule: Q01DX009 (ip), vehicle: saline 108 % of control | dose: 100.0 mg/kg/injection, schedule: Q01DX009 (ip), vehicle: saline 108 % of control | dose: 200.0 mg/kg/injection, schedule: Q01DX009 (ip), vehicle: saline 108 % of control

O=c1[nH]ncc(Cl)c1Cl
inactive: dose: 12.5 mg/kg/injection, schedule: Q01DX009 (ip), vehicle: saline with Tween-80 92 % of control | dose: 25.0 mg/kg/injection, schedule: Q01DX009 (ip), vehicle: saline with Tween-80 95 % of control | dose: 50.0 mg/kg/injection, schedule: Q01DX009 (ip), vehicle: saline with Tween-80 106 % of control | [4] 87 % of control | [5] 87 % of control

Cc1nc(N)sc1N=Nc1cccc(Cl)c1Cl
inactive: [6] 88 % of control | [7] 92 % of control | dose: 300.0 mg/kg/injection, schedule: Q01DX001 (ip), vehicle: saline 93 % of control

C[N+](C)(C)C12CCC(CC1)C1([N+](C)(C)C)CCC2CC1
inactive: dose: 100.0 mg/kg/injection, schedule: Q04DX002 (ip), vehicle: Klucel (hydroxypropylcellulose) (HPC) 109 % of control | dose: 200.0 mg/kg/injection, schedule: Q04DX002 (ip), vehicle: Klucel (hydroxypropylcellulose) (HPC) 113 % of control | dose: 400.0 mg/kg/injection, schedule: Q04DX002 (ip), vehicle: Klucel (hydroxypropylcellulose) (HPC) 117 % of control

CNC(=O)NNC(=O)CNC(=O)Nc1ccc(Cl)c(Cl)c1
inactive: [1] 106 % of control | [2] 93 % of control | [3] 97 % of control

C=C(C)/C=C(\C)CC(=C)C
inactive: [8] 97 % of control | [9] 105 % of control | [10] 96 % of control

O=C(O)CN1C(=O)CNC12CCCC2
inactive: [11] 100 % of control | [12] 108 % of control | [13] 93 % of control

CCN1C(=O)CC2CCCC1C2 (configuration not stated)
inactive: [11] 90 % of control

O=C1CC(NC(=O)OCc2ccccc2)C(=O)O1 (configuration not stated)
inactive: [4] 96 % of control | [8] 103 % of control | [5] 93 % of control | [9] 97 % of control | [14] 94 % of control | [10] 95 % of control

COc1ccc(C(C(N)=O)N2CCOCC2)cc1 (configuration not stated)
inactive: [1] 98 % of control | dose: 100.0 mg/kg/injection, schedule: Q04DX003 (ip), vehicle: Klucel (hydroxypropylcellulose) (HPC) 95 % of control | [2] 100 % of control | dose: 200.0 mg/kg/injection, schedule: Q04DX003 (ip), vehicle: Klucel (hydroxypropylcellulose) (HPC) 98 % of control | [3] 97 % of control | dose: 400.0 mg/kg/injection, schedule: Q04DX003 (ip), vehicle: Klucel (hydroxypropylcellulose) (HPC) 104 % of control

O=C(CSC1=NCCN1)c1ccccc1
inactive: [4] 101 % of control

SCCCCN1CCCCC1
inactive: dose: 3.0 mg/kg/injection, schedule: Q01DX001 (ip), vehicle: carboxymethylcellulose (CMC) 102 % of control | dose: 6.0 mg/kg/injection, schedule: Q01DX001 (ip), vehicle: carboxymethylcellulose (CMC) 100 % of control | dose: 12.0 mg/kg/injection, schedule: Q01DX001 (ip), vehicle: carboxymethylcellulose (CMC) 107 % of control | dose: 25.0 mg/kg/injection, schedule: Q01DX001 (ip), vehicle: carboxymethylcellulose (CMC) 95 % of control

NCCCNc1ccc([N+](=O)[O-])cc1
inactive: dose: 37.5 mg/kg/injection, schedule: Q04DX003 (ip), vehicle: saline 101 % of control | dose: 75.0 mg/kg/injection, schedule: Q04DX003 (ip), vehicle: saline 102 % of control | dose: 150.0 mg/kg/injection, schedule: Q04DX003 (ip), vehicle: saline 101 % of control

O=c1[nH]c(=S)[nH]c(Cc2ccccc2)c1CCO
inactive: [4] 96 % of control | [5] 108 % of control | [14] 96 % of control

N#Cc1ccncc1
inactive: [1] 91 % of control | [2] 93 % of control | [3] 96 % of control

CN(C)C1=CS(=O)(=O)C1
inactive: [6] 94 % of control | [7] 97 % of control

Cc1ncc2c[n+]([O-])ccn12
inactive: [8] 97 % of control | [9] 98 % of control

OCCCN=Cc1ccccc1O.[Co]
inactive: dose: 5.0 mg/kg/injection, schedule: Q01DX001 (ip), vehicle: saline 100 % of control | dose: 10.0 mg/kg/injection, schedule: Q01DX001 (ip), vehicle: saline 94 % of control | dose: 20.0 mg/kg/injection, schedule: Q01DX001 (ip), vehicle: saline 100 % of control | dose: 40.0 mg/kg/injection, schedule: Q01DX001 (ip), vehicle: saline 102 % of control | dose: 80.0 mg/kg/injection, schedule: Q01DX001 (ip), vehicle: saline 105 % of control

COC(=O)C(CC(C)C)NC(=O)C(CC(N)=O)NC(=O)C(NC(=O)OCc1ccccc1)C(C)C (stereo not drawn) (Cbz-Val-Asn-Leu-OMe; configuration not given here)
inactive: [11] 95 % of control | [12] 91 % of control | [13] 91 % of control
